Test results from patent publication US20230146455A1, “TREATMENT OF INFLAMMATORY DISEASES WITH PEPTIDES AND PHARMACEUTICAL COMPOSITIONS” (Yuyu Pharma, Inc., priority 2020, published 2023).
Values joined by “and” are separate entries in the source; they are usually repeats but may differ in a detail not shown here. Equal values may be shown once. Where a SMILES comes first, the peptide text is derived from it. [ ]: non-standard residue; d: D form. Hyp = O=C(O)[C@@H]1C[C@@H](O)CN1

Test system: VEGF-A
Test: Example 9 Luminex, LPS hPBMCs: VEGF-A
Assay type: cell-based, human
Description: Treatment Human PBMCs were pretreated with YY-101, YDE-011 and YDE-043 or reference compound; Xiidra® at various concentration (ranging from 1 nM to 100 uM) for 2 h before stimulation. An equal volume of 0.5% DMSO was used as a vehicle control. Then, the cells were treated with LPS at 5 ug/ml. The supernatants from treated cells were harvested at 24 h and placed in a 96 well for Luminex cytokine & chemokine profiling using a Luminex 200 multiplex assay (Luminex; R&D system, USA).
The main study arm with triplicate wells per group in a 24-well plate: • 1. Blank • 2. PBMC: 0.5% DMSO • 3. PBMC+LPS (5 ug/ml) • 4. PBMC+YY-101 100 uM • 5. PBMC+YY-101 10 uM • 6. PBMC+YY-101 1 uM • 7. PBMC+YY-101 0.1 uM • 8. PBMC+YY-101 0.01 uM • 9. PBMC+LPS (5 ug/ml)+Xiidra®100 uM • 10. PBMC+LPS (5 ug/ml)+Xiidra® 10 uM • 11. PBMC+LPS (5 ug/ml)+Xiidra® 1 uM • 12. PBMC+LPS (5 ug/ml)+Xiidra®0.1 uM • 13. PBMC+LPS (5 ug/ml)+Xiidra®0.01 uM • 14. PBMC+LPS (5 ug/ml)+Xiidra®0.001 uM • 15. PBMC+LPS (5 ug/ml)+YY-101 100 uM • 16. PBMC+LPS (5 ug/ml)+YY-101 10 uM • 17. PBMC+LPS (5 ug/ml)+YY-101 1 uM • 18. PBMC+LPS (5 ug/ml)+YY-101 0.1 uM • 19. PBMC+LPS (5 ug/ml)+YY-101 0.01 uM • 20. PBMC+LPS (5 ug/ml)+YY-101 0.001 uM • 21. PBMC+LPS (5 ug/ml)+YDE-011 100 uM • 22. PBMC+LPS (5 ug/ml)+YDE-011 10 uM • 23. PBMC+LPS (5 ug/ml)+YDE-011 1 uM • 24. PBMC+LPS (5 ug/ml)+YDE-011 0.1 uM • 25. PBMC+LPS (5 ug/ml)+YDE-011 0.01 uM • 26. PBMC+LPS (5 ug/ml)+YDE-011 0.001 uM • 27. PBMC+LPS (5 ug/ml)+YDE-043 100 uM • 28. PBMC+LPS (5 ug/ml)+YDE-043 10 uM • 29. PBMC+LPS (5 ug/ml)+YDE-043 1 uM • 30. PBMC+LPS (5 ug/ml)+YDE-043 0.1 uM • 31. PBMC+LPS (5 ug/ml)+YDE-043 0.01 uM • 32. PBMC+LPS (5 ug/ml)+YDE-043 0.001 uM
Multiplex assay was used to measure 30 cytokines and chemokines. The 1:2, 1:10 and 1:200 diluted cell supernatant and serial dilution of the standard were dispensed into a 96 well plate at 50 ul/well. Then, the pre-mixed cocktail of antibody-coated magnetic beads was dispensed at 50 ul/well and incubated at room temperature for 2 h in a horizontal orbital microplate shaker at 800±500 rpm. The beads were washed using a magnetic device to prevent loss. The biotin-antibody was dispensed in 50 ul of each well and incubated at room temperature for 1 h in a shaker at 800±500 rpm. After washing, streptavidin-PE was added at 50 ul/well and incubated at room temperature for 30 min in a shaker under the same conditions. Finally, after washing, wash buffer (100 ul/well) was added to the plate and incubated in a shaker for 2 min. The Luminex™ 200 setting were set according to the manufacturer's protocol. The data was calculated with a standard five-parameter logistic nonlinear regression analysis of the data (xPonent software 4.2, USA). The levels of cytokine/chemokine are normalized to the live cell counts (1×10^5 cells/mL) and presented as concentrations per mL (pg/mL or ng/mL).

[1] = PBMC + LPS(5 ug/ml) + test article 0.001 uM, Mean
[2] = PBMC + LPS(5 ug/ml) + test article 0.001 uM, single replicates
[3] = PBMC + LPS(5 ug/ml) + test article 0.01 uM, Mean
[4] = PBMC + LPS(5 ug/ml) + test article 0.01 uM, single replicates
[5] = PBMC + LPS(5 ug/ml) + test article 0.1 uM, Mean
[6] = PBMC + LPS(5 ug/ml) + test article 0.1 uM, single replicates
[7] = PBMC + LPS(5 ug/ml) + test article 1 uM, Mean
[8] = PBMC + LPS(5 ug/ml) + test article 1 uM, single replicates
[9] = PBMC + LPS(5 ug/ml) + test article 10 uM, Mean
[10] = PBMC + LPS(5 ug/ml) + test article 10 uM, single replicates
[11] = PBMC + LPS(5 ug/ml) + test article 100 uM, Mean
[12] = PBMC + LPS(5 ug/ml) + test article 100 uM, single replicates
[13] = PBMC + test article 0.01 uM, no LPS, Mean
[14] = PBMC + test article 0.01 uM, no LPS, single replicates
[15] = PBMC + test article 0.1 uM, no LPS, Mean
[16] = PBMC + test article 0.1 uM, no LPS, single replicates
[17] = PBMC + test article 1 uM, no LPS, Mean
[18] = PBMC + test article 1 uM, no LPS, single replicates

CC(C)C[C@H](NC(=O)CNC(=O)[C@H](CC(=O)O)NC(=O)[C@H](CCC(N)=O)NC(=O)CNC(=O)[C@@H]1C[C@@H](O)CN1)C(=O)N[C@@H](C)C(=O)NCC(=O)N1CCC[C@H]1C(=O)N[C@@H](CCCCN)C(=O)O [YY-101] (H-[Hyp]GQDGLAGPK-OH; N-terminus and C-terminus assumed)
Concentration, Bead name: VEGF-A [1]: 3.0 pg/mL | MFI, Bead name: VEGF-A [1]: −0.9 | conc/live cell, Bead name: VEGF-A [1]: 0.4 pg/10^5 | Concentration, Bead name: VEGF-A [2]: 2.2 pg/mL and 6.1 pg/mL and 0.6 pg/mL | MFI, Bead name: VEGF-A [2]: −1.3 and 0.3 and −1.8 | conc/live cell, Bead name: VEGF-A [2]: 0.4 pg/10^5 and 0.9 pg/10^5 and 0.1 pg/10^5 | Concentration, Bead name: VEGF-A [3]: 0.6 pg/mL | MFI, Bead name: VEGF-A [3]: −3.1 | conc/live cell, Bead name: VEGF-A [3]: 0.0 pg/10^5 | Concentration, Bead name: VEGF-A [4]: 0.6 pg/mL | MFI, Bead name: VEGF-A [4]: −1.8 and −3.8 (2×) | conc/live cell, Bead name: VEGF-A [4]: 0.1 pg/10^5 and 0.0 pg/10^5 (2×) | Concentration, Bead name: VEGF-A [5]: 2.6 pg/mL | MFI, Bead name: VEGF-A [5]: −1.1 | conc/live cell, Bead name: VEGF-A [5]: 0.4 pg/10^5 | Concentration, Bead name: VEGF-A [6]: 3.6 pg/ml (2×) and 0.6 pg/ml | MFI, Bead name: VEGF-A [6]: −0.8 (2×) and −1.8 | conc/live cell, Bead name: VEGF-A [6]: 0.6 pg/10^5 (2×) and 0.1 pg/10^5 | Concentration, Bead name: VEGF-A [7]: 2.9 pg/mL | MFI, Bead name: VEGF-A [7]: −1.4 | conc/live cell, Bead name: VEGF-A [7]: 0.3 pg/10^5 | Concentration, Bead name: VEGF-A [8]: 2.2 pg/mL and 3.6 pg/mL | MFI, Bead name: VEGF-A [8]: −2.3 and −1.3 and −0.8 | conc/live cell, Bead name: VEGF-A [8]: 0.0 pg/10^5 and 0.3 pg/10^5 and 0.6 pg/10^5 | Concentration, Bead name: VEGF-A [9]: 2.7 pg/mL | MFI, Bead name: VEGF-A [9]: −1.1 | conc/live cell, Bead name: VEGF-A [9]: 0.4 pg/10^5 | Concentration, Bead name: VEGF-A [10]: 2.2 pg/ml (2×) and 3.6 pg/ml | MFI, Bead name: VEGF-A [10]: −1.3 (2×) and −0.8 | conc/live cell, Bead name: VEGF-A [10]: 0.4 pg/10^5 and 0.3 pg/10^5 and 0.5 pg/10^5 | Concentration, Bead name: VEGF-A [11]: 4.3 pg/mL | MFI, Bead name: VEGF-A [11]: −0.4 | conc/live cell, Bead name: VEGF-A [11]: 0.7 pg/10^5 | Concentration, Bead name: VEGF-A [12]: 6.1 pg/ml (2×) and 0.6 pg/ml | MFI, Bead name: VEGF-A [12]: 0.3 (2×) and −1.8 | conc/live cell, Bead name: VEGF-A [12]: 1.0 pg/10^5 (2×) and 0.1 pg/10^5 | Concentration, Bead name: VEGF-A [13]: 8.4 pg/mL | MFI, Bead name: VEGF-A [13]: 1.3 | conc/live cell, Bead name: VEGF-A [13]: 1.7 pg/10^5 | Concentration, Bead name: VEGF-A [14]: 10.7 pg/mL and 6.1 pg/mL | MFI, Bead name: VEGF-A [14]: 2.3 and 0.3 | conc/live cell, Bead name: VEGF-A [14]: 2.1 pg/10^5 and 1.3 pg/10^5 | Concentration, Bead name: VEGF-A [15]: 7.3 pg/mL | MFI, Bead name: VEGF-A [15]: 0.8 | conc/live cell, Bead name: VEGF-A [15]: 1.4 pg/10^5 | Concentration, Bead name: VEGF-A [16]: 6.1 pg/mL and 8.5 pg/mL | MFI, Bead name: VEGF-A [16]: 0.3 and 1.3 | conc/live cell, Bead name: VEGF-A [16]: 1.4 pg/10^5 and 1.5 pg/10^5 | Concentration, Bead name: VEGF-A [17]: 7.3 pg/mL | MFI, Bead name: VEGF-A [17]: 0.8 | conc/live cell, Bead name: VEGF-A [17]: 1.3 pg/10^5 | Concentration, Bead name: VEGF-A [18]: 8.5 pg/mL and 6.1 pg/mL | MFI, Bead name: VEGF-A [18]: 1.3 and 0.3 | conc/live cell, Bead name: VEGF-A [18]: 1.5 pg/10^5 and 1.1 pg/10^5
